Assay results taken from patent US7202093B2, “Method for labeling phosphorylated peptides, method for selectively adsorbing phosphorylated peptides, complex compounds used in the methods, process for producing the complex compounds, and raw material compounds for the complex compounds” (Kabushiki Kaisha Nard Kenkyusho, priority 2003, dated 2007).
No end group written: not given here.

Tests used:
Format in all cases: binding
[1] = tested on: α-casein (phosphorylated), β-casein (phosphorylated), pepsin (phosphorylated); test: 10% native-polyacrylamide gel electrophoresis, gel stained and imaged by fluoro image analyzer (Experimental Example 3); details: ten protein samples
Experimental: First, prepared were gels for electrophoresis, pH buffer for electrophoresis, and a coloring solution for dissolving samples under the same condition as in Experimental Example 1.
Next, 2 μg each of 1: Bovine Serum Albumin, 2: Human Serum Albumin, 3: carbonic anhydrase, 4: β-galactosidase, 5: α-casein (phosphorylated), 6: α-casein (de-phosphorylated), 7: β-casein (phosphorylated), 8: β-casein (de-phosphorylated), 9: pepsin (phosphorylated), and 10: pepsin (de-phosphorylated) was dissolved in the coloring solution to prepare samples. The respective samples were plotted on the gel. Then, a constant electric current of 40 mA was applied until the coloring marker was flowed.
The obtained gel was immersed in a 10 mM Tris-acetate buffer (pH=7.4) containing 1 μM of N,N,N′-tri(2-pyridylmethyl)-N′-[5-N″-(2-N-5-fluoresceinylthioureidoethyl)carbamoyl-2-pyridylmethyl]-1,3-diamopropane-2-ol obtained in Production Example 8-1 and 100 μM zinc acetate for 30 minutes. Thereafter, the gel was taken out from the solution. This gel was washed with 100 mL of 10 mM Tris-acetate buffer (pH=7.4) for 10 minutes twice. Thereafter, a fluorescent image of the gel was photographed by using a fluoro image analyzer FLA-5000 (Fuji Photo Film Co., Ltd.) at an excitation wavelength of 473 nm with use of a fluorescence detecting filter of 510 nm. […]

[2] = tested on: inventive complex compound (compound of Production Example 3-1 + zinc acetate) bonded to Streptavidin agarose; test: Selective adsorption of peptides on Streptavidin agarose carrying the inventive zinc complex, fractions quantified by HPLC (Experimental Example 2); details: for isolation/recovery rate of the peptide to the total amount, fraction 1: filtrate of sample in 5.0 mM Tris-acetate buffer pH 7.4; for isolation/recovery rate of the peptide to the total amount, fraction 1 / isolation/recovery rate of the peptide to the total amount, fraction 5 / isolation/recovery rate of the peptide to the total amount, fraction 2 / isolation/recovery rate of the peptide to the total amount, fraction 6 / isolation/recovery rate of the peptide to the total amount, fraction 3 / isolation/recovery rate of the peptide to the total amount, fraction 4: agarose with zinc complex of Production Example 3-1; for isolation/recovery rate of the peptide to the total amount, fraction 5: first filtration with 1.0 mM phosphoric acid-sodium hydroxide buffer pH 7.4, 0.50M NaNO3; for isolation/recovery rate of the peptide to the total amount, fraction 2: first filtration with 5.0 mM Tris-acetate buffer pH 7.4, 0.50M NaNO3; for isolation/recovery rate of the peptide to the total amount, fraction 6: second filtration with 1.0 mM phosphoric acid-sodium hydroxide buffer pH 7.4, 0.50M NaNO3; for isolation/recovery rate of the peptide to the total amount, fraction 3: second filtration with 5.0 mM Tris-acetate buffer pH 7.4, 0.50M NaNO3; for isolation/recovery rate of the peptide to the total amount, fraction 4: third filtration with 5.0 mM Tris-acetate buffer pH 7.4, 0.50M NaNO3
Experimental: (§1) The suspension (0.3 mL) containing Streptavidin agarose (quantity of the bonded moiety of biotin: 60 to 120 nmol/mL) and a buffer (Sigma-Aldrich Co.) was charged in a centrifugal filter unit (volume: 0.5 mL filter pore diameter: 0.22 μm). The filter unit was subjected to centrifugal separation at centrifugal acceleration of 2,000×g for 15 seconds, followed by filtration of the suspension. 5.0 mM Tris-acetate buffer (pH=7.4, 0.30 mL) was charged in the filter unit, then the filter unit was subjected to centrifugal separation at 2,000×g for 15 seconds and filtration for washing. This centrifugal separation and filtration step for washing was cyclically repeated for 5 times.
To the filter unit, charged was 5.0 mM Tris-acetate buffer (pH=7.4, 0.30 mL) dissolving 120 nmol/mL of the compound obtained in Production Example 3-1 and 500 nmol/mL of zinc acetate. The filter unit was brought to an equilibrium state for 5 minutes, and then, subjected to centrifugal separation at 2,000×g for 15 seconds and filtration. Next, 5.0 mM Tris-acetate buffer (pH=7.4, 0.30 mL) was charged in the filter unit, and subjected to centrifugal separation at 2,000×g for 15 seconds and filtration for washing. This centrifugal separation and filtration step for washing was cyclically repeated for 5 times. Further, 5.0 mM Tris-acetate buffer (pH=7.4, 0.30 mL) dissolving 10 nmol/mL of zinc acetate was charged in the filter unit, and subjected to centrifugal separation at 2,000×g for 15 seconds and filtration for washing. This centrifugal separation and filtration step for washing was cyclically repeated for 5 times.
To the filter unit, charged was 5.0 mM Tris-acetate buffer (pH=7.4, 0.30 mL) dissolving non-phosphorylated peptide p60c (p60c-src peptide 521–533, 14 nmol/mL) and phosphorylated peptide P-p60c (O-phosphoryl p60c-src peptide 521–533, 12 nmol/mL), as samples. The filter unit was brought to an equilibrium state for 5 minutes, and then, subjected to centrifugal separation at 2,000×g for 15 seconds and filtration. The obtained filtrate was taken out as a fraction 1.
Next, 5.0 mM Tris-acetate buffer (pH=7.4, 0.50M NaNO3, 0.30 mL) was charged in the filter unit, and the filter unit was subjected to centrifugal separation at 2,000×g for 15 seconds and filtration for 3 times. The filtrate obtained after the first filtration was taken out as a fraction 2, the filtrate after the second filtration was taken out as a fraction 3, and the filtrate after the third filtration was taken out as a fraction 4.
Furthermore, 1.0 mM buffer containing phosphoric acid-sodium hydroxide (pH=7.4, 0.50M NaNO3, 0.30 mL) was charged in the filter unit, and the filter unit was subjected to centrifugal separation at 2,000×g for 15 seconds and filtration for 2 times. The filtrate obtained after the first filtration was taken out as a fraction 5, and the filtrate after the second filtration was taken out as a fraction 6.
The contents of the peptide in the respective fractions 1 through 6 were quantitatively determined by high performance liquid chromatography (HPLC).
(§2) Analyzing conditions according to HPLC: • column: Capcell Pak C18 type UG80, 4.6 mm (diameter)×150 mm • mobile phase: acetonitrile:water=14:86(v/v), 0.1%(v/v) of trifluoroacetic acid • flow rate: 1 mL/min. • column temperature: 40° C. • detecting method: UV 266 nm • retention time: P-p60c (5.3 min.). p60c (13.4 min.)

Streptavidin agarose = molecular target: T1, Streptavidin agarose (Streptomyces avidinii, UniProt P22629); test: Same fractionation on Streptavidin agarose without the inventive complex compound (Comparative Example 1); details: inventive complex compound not included; for isolation/recovery rate of the peptide, fraction 7: step as fraction 1 (sample filtrate, Tris-acetate pH 7.4); for isolation/recovery rate of the peptide, fraction 8: step as fraction 2 (Tris-acetate, 0.50M NaNO3, first); for isolation/recovery rate of the peptide, fraction 9: step as fraction 3 (Tris-acetate, 0.50M NaNO3, second); for isolation/recovery rate of the peptide, fraction 10: step as fraction 4 (Tris-acetate, 0.50M NaNO3, third); for isolation/recovery rate of the peptide, fraction 11: step as fraction 5 (phosphate buffer, first); for isolation/recovery rate of the peptide, fraction 12: step as fraction 6 (phosphate buffer, second)
T1 construct: purchased Sigma-Aldrich Co
Experimental: as §2
as §1, with “of biotin;” for “of biotin:”, “0.5 mL,” for “0.5 mL”, “at” for “at centrifugal acceleration of”, “suspension. Then,” for “suspension.”, “unit, and” for “unit, then”
A process similar to the process in Experiment Example 2 was conducted with use of samples equivalent to the samples used in Experimental Example 2, using a filter unit (in this Comparative Example, the inventive complex compound was not included). Thus, fractions 7 through 12 were obtained.
HPLC analysis was conducted with respect to the fractions 7 through 12 in a similar manner as Experimental Example 2.

T1 sequence (P22629 25-183): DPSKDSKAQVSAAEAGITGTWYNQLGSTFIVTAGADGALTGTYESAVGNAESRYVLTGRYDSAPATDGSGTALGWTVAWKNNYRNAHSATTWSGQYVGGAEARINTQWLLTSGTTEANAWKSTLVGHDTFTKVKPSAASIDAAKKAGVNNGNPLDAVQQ

Compound | identification (fluorescent labeling) of proteins in the gel ([1]; 1 μM compound + 100 μM zinc acetate, 10 mM Tris-acetate pH 7.4, 30 minutes, excitation 473 nm, FIG. 9 gel A) | dyeing of proteins in the gel by the conventional dyeing process ([1]; same gel, FIG. 9 gel B) | selective adsorption of phosphorylated peptide ([2]; mixed sample of P-p60c and p60c, complex formed with zinc acetate, bonded to Streptavidin agarose) | isolation/recovery rate of the peptide to the total amount, fraction 1 [2] [%] | isolation/recovery rate of the peptide to the total amount, fraction 5 [2] [%] | isolation/recovery rate of the peptide to the total amount, fraction 2 [2] [%] | isolation/recovery rate of the peptide to the total amount, fraction 6 [2] [%] | isolation/recovery rate of the peptide to the total amount, fraction 3 [2] [%] | isolation/recovery rate of the peptide to the total amount, fraction 4 [2] [%] | isolation/recovery rate of the peptide, fraction 7 (Streptavidin agarose) [%] | isolation/recovery rate of the peptide, fraction 8 (Streptavidin agarose) [%] | isolation/recovery rate of the peptide, fraction 9 (Streptavidin agarose) [%] | isolation/recovery rate of the peptide, fraction 10 (Streptavidin agarose) [%] | isolation/recovery rate of the peptide, fraction 11 (Streptavidin agarose) [%] | isolation/recovery rate of the peptide, fraction 12 (Streptavidin agarose) [%]
O=C(NCCNC(=S)Nc1ccc(-c2c3ccc(=O)cc-3oc3cc(O)ccc23)c(C(=O)O)c1)c1ccc(CN(Cc2ccccn2)CC(O)CN(Cc2ccccn2)Cc2ccccn2)nc1 (stereo not drawn) [Production Example 8-1, N,N,N′-Tri(2-pyridylmethyl)-N′-[5-N″-(2-N-5-fluoresceinylthioureidoethyl)carbamoyl-2-pyridylmethyl]-1,3-diaminopropane-2-ol] | only 5: α-casein (phosphorylated), 7: β-casein (phosphorylated) and 9: pepsin (phosphorylated) to all of which the phosphoric acid has been bonded were identified exclusively | – | – | – | – | – | – | – | – | – | – | – | – | – | –
Coomassie brilliant blue | – | all the peptides were dyed | – | – | – | – | – | – | – | – | – | – | – | – | –
N,N,N′-Tri(2-pyridylmethyl)-N′-[5-N″-2-(6-D-biotinamidohexacarboxyamidoethyl)carbamoyl-2-pyridylmethyl]-1,3-diaminopropane-2-ol [Production Example 3-1] | – | – | can adsorb selectively a phosphorylated peptide | – | – | – | – | – | – | – | – | – | – | – | –
P-p60c: phosphorylated peptide P-p60c (O-phosphoryl p60c-src peptide 521–533) (DYFTSTEPQYQPG; also: O-phosphotyrosine, position not given here; UniProt P12931 521-533, looked up, fragment) | – | – | – | 0 | 83 | 0 | 17 | 0 | 0 | 83 | 17 | 0 | 0 | 0 | 0
p60c: non-phosphorylated peptide p60c (p60c-src peptide 521–533) (DYFTSTEPQYQPG; UniProt P12931 521-533, looked up, fragment) | – | – | – | 67 | 0 | 24 | 0 | 9 | 0 | 75 | 20 | 5 | 0 | 0 | 0
